Data on 8 molecules can be found in publication PMC7546004, “Targeting BCL10 by small peptides for the treatment of B cell lymphoma” (Theranostics, 2020).

For data set [1], the target named is T1, BCL10 (Homo sapiens, UniProt O95999).
T1 sequence (O95999 1-233): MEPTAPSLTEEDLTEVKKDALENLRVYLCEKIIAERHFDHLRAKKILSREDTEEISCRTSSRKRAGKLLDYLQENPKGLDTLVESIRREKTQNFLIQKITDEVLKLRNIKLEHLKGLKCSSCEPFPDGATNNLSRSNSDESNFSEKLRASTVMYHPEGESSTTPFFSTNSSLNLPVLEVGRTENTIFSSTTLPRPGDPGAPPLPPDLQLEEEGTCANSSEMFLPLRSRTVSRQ
The data set is described as follows: Western blot of BCL10 protein level in DLBCL cells. The class given is cell-based. The arrangement: Western blot of BCL10 in cells treated with different concentrations of BCL10-P4 for 8 h; endogenous in cells; host or cells: HBL1, TMD8, OCI-LY1 DLBCL cells. The conditions noted are these: HBL1 cells, BCL10-P4 1 h pretreatment, then MG132 or chloroquine 3 h; Figure 4H. Here is the method:
Cell pellets were lysed in RIPA buffer (50 mM Tris at pH 8.0, 150 mM NaCl, 1% NP-40, 1 mM EDTA, and 1X protease inhibitor cocktail) or RIPA buffer containing 0.1% SDS. Equal amounts of protein extracts were separated by SDS-PAGE and blotted onto polyvinylidene difluoride (PVDF) membranes.

The subject of data set [2] is TMD8 cells. The data set is classed as cell-based, human. The text has this: (§1) GraphPad Prism software was used to determine GI50 values.
Data set [3] addresses T1, BCL10. In words: In vitro BCL10 filamentation assay (negative-stain electron microscopy). The class given is biochemical. The conditions noted are these: MBP-BCL10 and peptide premixed at 1:1 or 1:2 molar ratio, RT 30 min, then TEV cleavage. Here is the method: MBP-BCL10 was expressed and purified as previously described. MBP-BCL10 and BCL10 peptide inhibitors were premixed at a 1:1 or 1:2 molar ratio at RT for 30 minutes before adding TEV to cleave the MBP tag. 5 μL of reaction mixture was applied to copper grids (Beijing Zhongjingkeyi Technology Co., Cat. No. BZ10024a), where it remained for 1 minute and was then negatively stained with 3% uranyl acetate for 1 minute, air-dried and imaged with a JEM-1230 TEM at 100 keV.

Data set [4] deals with HBL1 cells. The class given is cell-based.
From the text: as §1

Data set [5] relates to NF-κB target genes in TMD8 cells. In words: RNA-seq gene set enrichment analysis of NF-κB target genes. The class given is cell-based. The conditions noted are these: BCL10-P4 5 μM, ibrutinib 10 nM, 8 h and 24 h, duplicate. The protocol:
1:100 dilution for 15 min at room temperature in the dark. Signals from FL1 and FL3 channels were collected by MACSQuant analyzer and data were analyzed using FloJo (Ashland, OR). Early apoptosis was defined as AnnexinV+/PI-, and late apoptosis as AnnexinV+/PI+. Percentage of apoptotic cells were the sum of early and late apoptotic cells.
For cell cycle analysis, cells were washed twice with cold PBS and fixed in 70% ethanol overnight at 4°C. Fixed cells were collected at 1800 rpm for 10 min and stained with PBS containing PI and DNase-free RNase A (Sigma-Aldrich) for 1h at room temperature in the dark. DNA content was measured by BD LSRII flow cytometer and data were analyzed in FloJo. […]
All extracts were treated with DNase in column during RNA purification. RNA integrity was determined on an Agilent 2100 Bioanalyzer (Agilent Technologies, SantaClara, CA). […]
RNAseq raw data are analyzed with the Salmon software 30 using default settings. Log2Fold changes and P values of differentiation gene expression between different samples are calculated using the Bioconductor - DESeq2 R package 31 using default settings. […]
Six-week-old female NOD prkdc-/- IL-2Rg-/- (NCG) mice purchased from GemPharmatech Co., Lt d we re raised in a SPF- level Laboratory Animal Room. […] Tumor volumes were monitored by a digital caliper every other day and calculated using the formula: (smallest diameter2 x largest diameter)/2. […]

Data set [6] deals with SUDHL6. The class given is cell-based, human. The conditions noted are these: 24 h.
From the text: as §1

Data set [7] has as its system 293T. The data set is described as follows: Growth inhibition, noncancerous cell line. The data set is classed as cell-based.
From the text: as §1

The test system of data set [8] is BPH-1. The data set is described as follows: Growth inhibition, noncancerous cell line. The data set is classed as cell-based.
From the text: as §1

Data set [9] deals with ABC-DLBCL cells (HBL1 and TMD8 cell lines). The data set is classed as cell-based. The conditions noted are these: 72 h.
From the text: as §1

Data set [10] has as its system OCI-LY3. The class given is cell-based. The conditions noted are these: 24 h.
From the text: as §1

Data set [11] concerns KARPAS422. The class given is cell-based. The conditions noted are these: 24 h.
From the text: as §1

The test system of data set [12] is RCK8. The class given is cell-based. The conditions noted are these: 24 h.
From the text: as §1

For data set [13], the system named is DLBCL cell lines. The class given is cell-based.
From the text: as §1

The subject of data set [14] is SUDHL4. The data set is classed as cell-based. The conditions noted are these: 24 h.
From the text: as §1

Data set [15] has as its system HBL1 cells. In words: Intracellular pharmacokinetics, BCL10-P4 versus DRI-BCL10-P4. The conditions noted are these: Figure 6B and S7A; western blot. Here is the method: MBP-Bcl10 was expressed and purified as previously described {Qiao, 2013 #85}. Purified
mM NaCl, 1% NP-40) at 4 °C for 1 hour, followed by addition of 5% BSA blocked S t re ptavidin (SAV)
Immunoprecipitant were washed 5 times with IP buffer and separated by SDS-PA G E . […]
(§2) hActin- F: 5’-[…]-3’
(§3) hIL6-R: 5’- […]-3 ’.
(§4) hBcl10-F: 5’-[…] TAGAAA-3’
(§5) hBcl10-R: 5’-[…] T-3’
(§6) 1x105 HBL1, TMD8, OCl-LY 1 , OCl-LY 1 , U2932, MD901 or RCK8 cells were seeded in 12-well plate
(§7) wa sh e d and lysed with RIPA buffer.
(§8) immunoblotting with Streptavidin (Cell signaling, cat. #3999S). […]
On the technique in general: Immunoblotting shows a protein as a band on a membrane.

In data set [16] the test system is Jurkat cells. In words: Growth inhibition. The conditions noted are these: Figure S3E; exposure time not given. The data set is classed as cell-based.
From the text: as §1

Data set [17] concerns HBL1, TMD8 and OCI-LY1 cells. The data set is described as follows: Intracellular pharmacokinetics of biotinylated BCL10-P4 (streptavidin blot). The data set is classed as in vitro ADME. The protocol: as §2, §3, §4, §5, §6, §7, §8
Where [18] appears, read: noncancerous cell line, Figure S2C.
The mark [19] stands for this setting: 5 μM biotinylated BCL10-P4, cell lysate blotted with streptavidin.

Where two headings read alike, the source gives them in different places. Square brackets hold non-standard residues; d marks the D form. Ends that are not written are not given here. Peptide text beside a SMILES is read from it. * marks the point of attachment. Cbz = O=C(OCc1ccccc1)*

Turning to `CCN(CC)CCCC(C)Nc1ccnc2cc(Cl)ccc12` (centres unmarked) [CHL, chloroquine], the “BCL10 degradation by BCL10-P4 with proteasome or autophagy inhibitor” value in [1] is “prevented BCL10 degradation by BCL10-P4”.
One may read the GI50 as the concentration at which growth is held to half of that of the control. On to `CC[C@@H](C)[C@@H](NC(=O)[C@@H](CC(C)C)NC(=O)[C@@H](CO)NC(=O)[C@H](N)CCCNC(=N)N)C(=O)N[C@H](CCCCN)C(=O)N[C@H](CCCCN)C(=O)N[C@H](C)C(=O)N[C@H](CCCNC(=N)N)C(=O)N[C@H](CC(C)C)C(=O)N[C@H](Cc1c[nH]cn1)C(=O)N[C@H](CC(=O)O)C(=O)N[C@H](Cc1ccccc1)C(=O)N[C@H](Cc1c[nH]cn1)C(=O)N[C@H](CCCNC(=N)N)C(=O)N[C@H](CCCCN)C(=O)N[C@H](CCCCN)C(=O)N[C@H](Cc1c[nH]c2ccccc12)C(=O)N[C@H](CCCCN)C(=O)N[C@H](CCSC)C(=O)N[C@H](CCCNC(=N)N)C(=O)N[C@H](CCCNC(=N)N)C(=O)N[C@H](CC(N)=O)C(=O)N[C@H](CCC(N)=O)C(=O)N[C@H](Cc1ccccc1)C(=O)N[C@H](Cc1c[nH]c2ccccc12)C(=O)N[C@@H](C(=O)N[C@H](CCCCN)C(=O)N[C@@H](C(=O)N[C@H](CCC(N)=O)C(=O)N[C@H](CCCNC(=N)N)C(=O)N[C@H](CC(=O)O)C(=O)O)[C@H](C)CC)[C@H](C)CC` [DRI-BCL10-P2] (H-[dR][dS][dL][dI][dK][dK][dA][dR][dL][dH][dD][dF][dH][dR][dK][dK][dW][dK][dM][dR][dR][dN][dQ][dF][dW][dI][dK][dI][dQ][dR][dD]-OH; N-terminus and C-terminus assumed), for which the 50% growth inhibitory concentration (GI50) in data set [2] is 13.6 ± 2.3 µM; in data set [4] it was 7.64 ± 3.5 µM. The “BCL10 filament formation (EM)” value in data set [3] is given as “inhibited Bc10 filament formation in vitro”.
On to `CC(C)C[C@@H](C=O)NC(=O)[C@H](CC(C)C)NC(=O)[C@H](CC(C)C)NC(=O)OCc1ccccc1` [MG132] (Cbz-Leu-Leu-Leu-aldehyde), for which the “BCL10 degradation by BCL10-P4 with proteasome or autophagy inhibitor” value in [1] is “negligibly prevented BCL10 degradation”.
For the molecule `C=CC(=O)N1CCC[C@@H](n2nc(-c3ccc(Oc4ccccc4)cc3)c3c(N)ncnc32)C1` [ibrutinib], the “expression of NF-κB target genes (GSEA)” value in data set [5] is reported as “comparable to the effect of ibrutinib treatment”.
DRQIKIWFQNRRMKWKKEKIIAERHF [BCL10-P1]: growth in [4] (72 h) was halved (GI50) at 53.9 ± 10.3 µM.
On to “DRQIKIWFQNRRMKWKKKGLDTLVESIRREKTQ [BCL10-P5]”, for which the GI50 in data set [2] (72 h) is 49 ± 33.9 µM; in [4] (72 h), 66.5 ± 9.2 µM.
Consider “DRQIKIWFQNRRMKWKKRHFDHLRAKKILSR [BCL10-P2]”, for which the 50% growth inhibitory concentration (GI50) in [2] (72 h) was 3.35 ± 1.1 µM; in data set [6], 5.42 ± 3.09 µM; in [9] it was 3 to 6 µM; in data set [10], 5.51 ± 0.9 µM; in data set [11] it was 5.39 ± 0.2 µM; in data set [12], 16 ± 12.3 µM. Further, the GI50 was less than 10 µM in [13], 5.1 ± 0.8 µM in data set [4] (72 h) and 2.56 ± 0.23 µM in [14]. Also, the “growth inhibition effect on 293T” value in data set [7] is given as “neither BCL10-P2 nor BCL10-P4 displayed a growth inhibition effect”. Also, the “growth inhibition effect on BPH-1” value in data set [8] was “neither BCL10-P2 nor BCL10-P4 displayed a growth inhibition effect”.
Take “DRQIKIWFQNRRMKWKKRTSSRKRAGKLLDYLQE [BCL10-P4]”: the GI50 was 4.7 ± 1.8 µM in data set [2] (72 h, Figure 2B, mean ± SD of three independent experiments, read-out: GI50 TMD8); 3 to 6 µM in [9] (text summary of Figure 2A-B, read-out: GI50 in the HBL1 and TMD8 cells); less than 10 µM in data set [13] (only exception U2932, read-out: GI50 values on most ABC-DLBCL cell lines); 4.2 ± 1 µM in data set [4] (72 h, Figure 2B, mean ± SD of three independent experiments, read-out: GI50 HBL1); 10.3 ± 2.29 µM in data set [16]. Moreover, the “growth inhibition effect on 293T” value in data set [7] (setting [18]) is “neither BCL10-P2 nor BCL10-P4 displayed a growth inhibition effect”. Moreover, the “growth inhibition effect on BPH-1” value in [8] (setting [18]) was “neither BCL10-P2 nor BCL10-P4 displayed a growth inhibition effect”. Also, the “intracellular level after the first 4 h (intracellular stability)” value in data set [15] is on record as “decreased rapidly thereafter”. For the same molecule, in data set [15], the “uptake by HBL1 cells and level within the first 4 h” value is recorded as “similarly taken up”. Further, in data set [17] (5 μM biotinylated BCL10-P4, 1-24 h, cell lysate blotted with streptavidin), the “cellular uptake (entry into cells)” value is given as “comparable efficiency”. Besides, in data set [17] (setting [19]), the “time of disappearance from cells” value is reported as “approximately 24 h”. Moreover, the “time of peak intracellular level” value in data set [17] (setting [19]) was in the range of 1 to 2 h.
